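Five compound concentrations were applied to cells in 96-well plates for 48 hours; endpoints were derived by simple linear interpolation of the resulting dose-response curve. GI50: concentration for 50% inhibition of growth.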 Activity calls are given as the source filed them. No stated cut-off is given here; in the data, active = GI50 up to about 1.1 µM and inactive = higher.
Key:
Assay in all cases: DTP human tumour cell line panel, 48 h
KM12 = test system: KM12
UACC-257 = test system: UACC-257
A549 = test system: A549
SR = test system: SR
HL-60 = test system: HL-60
EKVX = test system: EKVX
HCT-116 = test system: HCT-116
CCRF-CEM = test system: CCRF-CEM
U-251 = test system: U-251
DMS-273 = test system: DMS-273
RXF 393 = test system: RXF 393
NCI-H23 = test system: NCI-H23
NCI-H226 = test system: NCI-H226
LXFL 529 = test system: LXFL 529
SNB-19 = test system: SNB-19
COLO 205 = test system: COLO 205
SK-OV-3 = test system: SK-OV-3
MOLT-4 = test system: MOLT-4
SK-MEL-28 = test system: SK-MEL-28
UACC-62 = test system: UACC-62
TK-10 = test system: TK-10
OVCAR-5 = test system: OVCAR-5
OVCAR-3 = test system: OVCAR-3
ACHN = test system: ACHN
KM-20L2 = test system: KM-20L2
A498 = test system: A498
UO-31 = test system: UO-31
HOP-62 = test system: HOP-62
M14 = test system: M14
Malme-3M = test system: Malme-3M
SK-MEL-5 = test system: SK-MEL-5
SNB-75 = test system: SNB-75
M19-MEL = test system: M19-MEL
K562 = test system: K562
LOX IMVI = test system: LOX IMVI
OVCAR-8 = test system: OVCAR-8
SF-268 = test system: SF-268
DMS-114 = test system: DMS-114
IGROV-1 = test system: IGROV-1
HCC 2998 = test system: HCC 2998
NCI-H522 = test system: NCI-H522
SK-MEL-2 = test system: SK-MEL-2
HCT-15 = test system: HCT-15
HT-29 = test system: HT-29
SF-539 = test system: SF-539
786-0 = test system: 786-0
SN12C = test system: SN12C
NCI-H460 = test system: NCI-H460
HOP-18 = test system: HOP-18
SW-620 = test system: SW-620
DLD-1 = test system: DLD-1
HOP-92 = test system: HOP-92
CAKI-1 = test system: CAKI-1
SF-295 = test system: SF-295
SNB-78 = test system: SNB-78
RPMI-8226 = test system: RPMI-8226
XF498 = test system: XF498

Structure (SMILES): NC(=O)Cn1c(=O)[nH]c(=O)c2[nH]cnc21
- GI50 (KM12): > 100 µM (inactive)
- GI50 (UACC-257): > 100 µM (inactive)
- GI50 (A549): > 100 µM (inactive)
- GI50 (SR): > 100 µM (inactive)
- GI50 (HL-60): > 100 µM (inactive)
- GI50 (EKVX): > 100 µM (inactive)
- GI50 (HCT-116): > 100 µM (inactive)
- GI50 (CCRF-CEM): > 100 µM (inactive)
- GI50 (U-251): > 100 µM (inactive)
- GI50 (DMS-273): > 100 µM (inactive)
- GI50 (RXF 393): > 100 µM (inactive)
- GI50 (NCI-H23): > 100 µM (inactive)
- GI50 (NCI-H226): > 100 µM (inactive)
- GI50 (LXFL 529): > 100 µM (inactive)
- GI50 (SNB-19): > 100 µM (inactive)
- GI50 (COLO 205): > 100 µM (inactive)
- GI50 (SK-OV-3): > 100 µM (inactive)
- GI50 (MOLT-4): > 100 µM (inactive)
- GI50 (SK-MEL-28): > 100 µM (inactive)
- GI50 (UACC-62): > 100 µM (inactive)
- GI50 (TK-10): > 100 µM (inactive)
- GI50 (OVCAR-5): > 100 µM (inactive)
- GI50 (OVCAR-3): > 100 µM (inactive)
- GI50 (ACHN): > 100 µM (inactive)
- GI50 (KM-20L2): > 100 µM (inactive)
- GI50 (A498): > 100 µM (inactive)
- GI50 (UO-31): > 100 µM (inactive)
- GI50 (HOP-62): > 100 µM (inactive)
- GI50 (M14): > 100 µM (inactive)
- GI50 (Malme-3M): > 100 µM (inactive)
- GI50 (SK-MEL-5): > 100 µM (inactive)
- GI50 (SNB-75): > 100 µM (inactive)
- GI50 (M19-MEL): > 100 µM (inactive)
- GI50 (K562): > 100 µM (inactive)
- GI50 (LOX IMVI): > 100 µM (inactive)
- GI50 (OVCAR-8): > 100 µM (inactive)
- GI50 (SF-268): > 100 µM (inactive)
- GI50 (DMS-114): > 100 µM (inactive)
- GI50 (IGROV-1): > 100 µM (inactive)
- GI50 (HCC 2998): > 100 µM (inactive)
- GI50 (NCI-H522): > 100 µM (inactive)
- GI50 (SK-MEL-2): > 100 µM (inactive)
- GI50 (HCT-15): > 100 µM
- GI50 (HT-29): > 100 µM (inactive)
- GI50 (SF-539): > 100 µM (inactive)
- GI50 (786-0): > 100 µM (inactive)
- GI50 (SN12C): > 100 µM (inactive)
- GI50 (NCI-H460): > 100 µM (inactive)
- GI50 (HOP-18): > 100 µM (inactive)
- GI50 (SW-620): > 100 µM (inactive)

Structure (SMILES): NC(CCc1nc(-c2ccccc2)cs1)C(=O)O (configuration not stated)
- GI50 (DLD-1): > 100 µM (inactive)
- GI50 (KM12): > 100 µM (inactive)
- GI50 (UACC-257): > 100 µM (inactive)
- GI50 (A549): > 100 µM (inactive)
- GI50 (HL-60): > 100 µM (inactive)
- GI50 (EKVX): > 100 µM (inactive)
- GI50 (HCT-116): > 100 µM (inactive)
- GI50 (CCRF-CEM): > 100 µM (inactive)
- GI50 (U-251): > 100 µM (inactive)
- GI50 (DMS-273): > 100 µM (inactive)
- GI50 (RXF 393): > 100 µM (inactive)
- GI50 (NCI-H23): > 100 µM (inactive)
- GI50 (NCI-H226): > 100 µM (inactive)
- GI50 (HOP-92): > 100 µM (inactive)
- GI50 (LXFL 529): > 100 µM (inactive)
- GI50 (SNB-19): > 100 µM (inactive)
- GI50 (COLO 205): > 100 µM (inactive)
- GI50 (SK-OV-3): > 100 µM (inactive)
- GI50 (MOLT-4): > 100 µM (inactive)
- GI50 (SK-MEL-28): > 100 µM (inactive)
- GI50 (CAKI-1): > 100 µM (inactive)
- GI50 (UACC-62): > 100 µM (inactive)
- GI50 (TK-10): > 100 µM (inactive)
- GI50 (OVCAR-3): > 100 µM (inactive)
- GI50 (ACHN): > 100 µM (inactive)
- GI50 (A498): > 100 µM (inactive)
- GI50 (UO-31): 75.2 µM (inactive)
- GI50 (SF-295): > 100 µM (inactive)
- GI50 (M14): > 100 µM (inactive)
- GI50 (Malme-3M): > 100 µM (inactive)
- GI50 (SK-MEL-5): > 100 µM (inactive)
- GI50 (SNB-78): > 100 µM (inactive)
- GI50 (SNB-75): 59.6 µM (inactive)
- GI50 (M19-MEL): > 100 µM (inactive)
- GI50 (K562): > 100 µM (inactive)
- GI50 (LOX IMVI): > 100 µM (inactive)
- GI50 (OVCAR-8): > 100 µM (inactive)
- GI50 (RPMI-8226): > 100 µM (inactive)
- GI50 (DMS-114): > 100 µM (inactive)
- GI50 (IGROV-1): > 100 µM (inactive)
- GI50 (HCC 2998): > 100 µM (inactive)
- GI50 (NCI-H522): > 100 µM (inactive)
- GI50 (HCT-15): > 100 µM
- GI50 (HT-29): > 100 µM (inactive)
- GI50 (SF-539): > 100 µM (inactive)
- GI50 (786-0): 81.7 µM (inactive)
- GI50 (SN12C): > 100 µM (inactive)
- GI50 (NCI-H460): > 100 µM (inactive)
- GI50 (HOP-18): > 100 µM (inactive)
- GI50 (SW-620): > 100 µM (inactive)

Structure (SMILES): O=C1NCC2=C1CCC1c3ccccc3CCN21 (configuration not stated)
- GI50 (DLD-1): > 100 µM (inactive)
- GI50 (KM12): > 100 µM (inactive)
- GI50 (UACC-257): > 100 µM (inactive)
- GI50 (A549): > 100 µM (inactive)
- GI50 (SR): > 100 µM (inactive)
- GI50 (HL-60): > 100 µM (inactive)
- GI50 (EKVX): > 100 µM (inactive)
- GI50 (HCT-116): > 100 µM (inactive)
- GI50 (CCRF-CEM): > 100 µM (inactive)
- GI50 (U-251): > 100 µM (inactive)
- GI50 (DMS-273): > 100 µM (inactive)
- GI50 (RXF 393): > 100 µM (inactive)
- GI50 (NCI-H23): > 100 µM (inactive)
- GI50 (NCI-H226): > 100 µM (inactive)
- GI50 (HOP-92): > 100 µM (inactive)
- GI50 (LXFL 529): > 100 µM (inactive)
- GI50 (SNB-19): > 100 µM (inactive)
- GI50 (COLO 205): > 100 µM (inactive)
- GI50 (SK-OV-3): > 100 µM (inactive)
- GI50 (MOLT-4): > 100 µM (inactive)
- GI50 (SK-MEL-28): > 100 µM (inactive)
- GI50 (CAKI-1): > 100 µM (inactive)
- GI50 (UACC-62): > 100 µM (inactive)
- GI50 (TK-10): > 100 µM (inactive)
- GI50 (OVCAR-5): > 100 µM (inactive)
- GI50 (OVCAR-3): > 100 µM (inactive)
- GI50 (ACHN): > 100 µM (inactive)
- GI50 (KM-20L2): > 100 µM (inactive)
- GI50 (A498): > 100 µM (inactive)
- GI50 (UO-31): > 100 µM (inactive)
- GI50 (SF-295): > 100 µM (inactive)
- GI50 (XF498): > 100 µM (inactive)
- GI50 (Malme-3M): > 100 µM (inactive)
- GI50 (SK-MEL-5): > 100 µM (inactive)
- GI50 (SNB-78): > 100 µM (inactive)
- GI50 (SNB-75): > 100 µM (inactive)
- GI50 (M19-MEL): > 100 µM (inactive)
- GI50 (LOX IMVI): > 100 µM (inactive)
- GI50 (OVCAR-8): > 100 µM (inactive)
- GI50 (SF-268): > 100 µM (inactive)
- GI50 (DMS-114): > 100 µM (inactive)
- GI50 (IGROV-1): > 100 µM (inactive)
- GI50 (HCC 2998): > 100 µM (inactive)
- GI50 (NCI-H522): > 100 µM (inactive)
- GI50 (SK-MEL-2): > 100 µM (inactive)
- GI50 (HCT-15): > 100 µM
- GI50 (HT-29): > 100 µM (inactive)
- GI50 (SF-539): > 100 µM (inactive)
- GI50 (786-0): > 100 µM (inactive)
- GI50 (SN12C): > 100 µM (inactive)
- GI50 (NCI-H460): > 100 µM (inactive)
- GI50 (SW-620): > 100 µM (inactive)

Source: ChEMBL document CHEMBL1201862, “PubChem BioAssay data set” (2004)
